Data set [1] in a line: Proteolytic stability assay in 1% rat small intestinal fluid (rSIF). How it is done: The stability of peptides are compared in 1% rat small intestinal fluid (rSIF). The amount of intact peptide is measured for a sample peptide at 0, 3, 15, and 30 minutes to assess proteolytic stability. The amount of intact peptide for a sample peptide is measured in 90% pig small intestinal fluid (pSIF) at 0, 30, 45, and 60 minutes to assess the proteolytic stability.
Peptides are prepared at 0.4 mg/mL in 50 mM Tris pH8.0. […] The mixture is incubated at 37° C. at 150 rpm. Thirty μL of each sample are removed and placed into a new tube before the rSIF is added and at […]. At each time point, the reaction was quenched by 1% TFA in 50% ACN at 1:1. The samples are diluted 100 times using dilution buffer (1:1 of 1% TFA in 50% ACN: 50 mM Tris pH8) and ready for analysis using mass spectrometry (MS).
(§1) The data analysis is performed using MassLynx.

Data set [2] is described as follows: Proteolytic stability assay in 90% pig small intestinal fluid (pSIF). The class given is in vitro ADME. As to conditions: 90% pSIF, 37° C. How it is done: Peptides are diluted to a concentration of 0.4 mg/mL in 90% pig small intestinal fluid. After the mixing, 20 μL are immediately removed (time 0 for the time point of pre-incubation). The mixture is then incubated at 37° C. at 150 rpm. […] The sample is centrifuged at 20,000×g for 20 min at 4° C.
as §1

Data set [3] is described as follows: Peptide stability in 50% v/v pig small intestinal fluid with and without protease inhibitor. As to conditions: for % peptide intact: 0 min; for remaining at 0.25 h: 15 min; for remaining at 0.25 h / remaining at 0.5 h / remaining at 1 h: read-out: % peptide intact; for remaining at 0.5 h: 30 min; for remaining at 1 h: 60 min. The format is in vitro ADME. As for the experimental part: A peptide is incubated at 37° C. in 1% (v/v) rat small intestinal fluid or 50% (v/v) pig small intestinal fluid with and without a peptidase inhibitor. At different time points, samples are taken out, followed by quenching with 1% TFA in 50% ACN/water to stop the enzyme activity. The intact peptide at different time points is analyzed by high-performance liquid chromatography (HPLC) equipped with an ultraviolet (UV) detector or LC-MS/MS and normalized to the amount of peptide before mixing with the enzyme solution.

Setting [4] is: rat, real gastrointestinal fluid or homogenate, pH 8.
The mark [5] stands for this setting: pH 8, with rSBTI (5 mg/mL), protease inhibitor, rSBTI (5 mg/mL).

Read-outs that look alike come from different tables or passages of the source.

On to `CC[C@H](C)[C@H](NC(=O)[C@H](CC(C)C)NC(=O)[C@](C)(Cc1ccc(O)cc1)NC(=O)[C@@H](CCC(=O)O)NC(=O)[C@@H](NC(=O)[C@H](Cc1ccccc1)NC(=O)[C@H](CCC(=O)O)NC(=O)C(C)(C)NC(=O)[C@H](CCC(N)=O)NC(=O)[C@H](C)NC(=O)[C@H](CCCCNC(=O)COCCOCCNC(=O)COCCOCCNC(=O)CC[C@H](NC(=O)CCCCCCCCCCCCCCCCC(=O)O)C(=O)O)NC(=O)[C@H](CCCN)NC(=O)[C@H](CC(=O)O)NC(=O)[C@H](CC(C)C)NC(=O)[C@](C)(CC(C)C)NC(=O)[C@@H](NC(=O)[C@H](CO)NC(=O)[C@H](Cc1ccncc1)NC(=O)[C@H](CC(=O)O)NC(=O)[C@H](CO)NC(=O)[C@@H](NC(=O)[C@](C)(Cc1ccccc1F)NC(=O)[C@@H](NC(=O)CNC(=O)[C@H](CCC(=O)O)NC(=O)C(C)(C)NC(=O)[C@@H](N)Cc1ccc(O)cc1)[C@@H](C)O)[C@@H](C)O)[C@@H](C)CC)[C@@H](C)CC)C(=O)N[C@@H](CCC(=O)O)C(=O)NCC(=O)NCC(=O)N1CCC[C@H]1C(=O)N[C@@H](CO)C(=O)N[C@@H](CO)C(=O)NCC(=O)N[C@@H](C)C(=O)N1CCC[C@H]1C(=O)N1CCC[C@H]1C(=O)N1CCC[C@H]1C(=O)N[C@@H](CO)C(N)=O` [Example 4], for which the “percentage of peptide not cleaved using rSIF” value in data set [1] (0 min, 1% rSIF, 37° C.) is 100%. In data set [1] (setting [4]), the remaining at 0.05 h, 0.4 mg/mL was determined as 97.9%; the remaining at 0.25 h, 0.4 mg/mL worked out at 99.3%; the remaining at 1 h, 0.4 mg/mL was found to be 89.4%. Also, the “percentage of peptide not cleaved using pSIF” value in data set [2] (0 min) amounted to 100%. For the same molecule, in data set [2] (pig, 90% pig small intestinal fluid (pSIF), 30 min, read-out: percentage of peptide not cleaved using pSIF), the remaining at 0.5 h, 0.4 mg/mL was 73.4%. The remaining at 0.75 h, 0.4 mg/mL in data set [2] (pig, 90% pig small intestinal fluid (pSIF), 45 min, read-out: percentage of peptide not cleaved using pSIF) was 56.4%. For the same molecule, the remaining at 1 h, 0.4 mg/mL in data set [2] (pig, 90% pig small intestinal fluid (pSIF), 60 min, read-out: percentage of peptide not cleaved using pSIF) came out at 60%. Besides, in data set [3] (no PI, control), the “% peptide intact” value came out at 100.00%. Also, in data set [3] (pH 8, no PI, control), the remaining at 0.25 h turned out to be 72.5%, the remaining at 0.5 h is 41.4% and the remaining at 1 h was found to be 19%. In addition, in data set [3] (setting [5]), the remaining at 0.25 h turned out to be 97%, the remaining at 0.5 h came to 96.3% and the remaining at 1 h is 88.6%. Moreover, in data set [3] (rSBTI (5 mg/mL)), the “% peptide intact” value is recorded as 100.00%.

The values above are taken from patent US12252524B2, “GIP/GLP1 co-agonist compounds” (Eli Lilly and Company, priority 2018, dated 2025).
